Patent publication US20210403485A1, “PYRAZOLOPYRIMIDINE DERIVATIVE AS SELECTIVE TRK INHIBITOR” (SHANDONG LUYE PHARMACEUTICAL CO., LTD., priority 2018, published 2021)

Legend:
[1] = tested on: Ba/F3 ETV6-NTRK3 cells; assay: Efficacy test in animals: subcutaneous xenograft, intragastric administration; format: in vivo, nude mice; conditions: for TGI (tumor growth inhibition rate): day of dissection; for Tumor inhibition rate (by tumor weight) / Tumor weight: end of the test
Description: Cells in the logarithmic growth phase were collected and resuspended in serum-free medium to a cell concentration of 2-4×10^7 cells/mL. An equal volume of matrigel was added to the cell suspension to achieve a final cell concentration of 1-2×10^7 cells/mL. 0.2 mL of tumor cell suspension was subcutaneously inoculated at the scapula of each nude mouse with the inoculation amount of 2-4×10^6 cells/mouse to prepare the animal models.

[2] = Animal body weight and general observations, Ba/F3 ETV6-NTRK3-G623R tumor-bearing nude mice

SMILES: O=C1NC2(CC2)COc2ncc(F)cc2C2COCCN2c2ccn3ncc1c3n2 (single isomer, unassigned) [WX001B]
- Inhibition of growth of subcutaneous xenografts ([1]; 2.5-20 mg/kg): in a dose-dependent manner
- Relative tumor proliferation rate T/C ([1]; Day 0, 2.5 mg/kg bid): 100.00%
- Tumor volume ([1]; Day 0, 2.5 mg/kg bid): 303.54 ± 48.83 mm^3
- Relative tumor proliferation rate T/C ([1]; Day 0, 5 mg/kg bid): 100.00%
- Tumor volume ([1]; Day 0, 5 mg/kg bid): 303.26 ± 50.47 mm^3
- Relative tumor proliferation rate T/C ([1]; Day 0, 10 mg/kg bid): 100.00%
- Tumor volume ([1]; Day 0, 10 mg/kg bid): 303.14 ± 45.09 mm^3
- Relative tumor proliferation rate T/C ([1]; Day 0, 20 mg/kg bid): 100.00%
- Tumor volume ([1]; Day 0, 20 mg/kg bid): 303.47 ± 45.79 mm^3
- Relative tumor proliferation rate T/C ([1]; Day 3, 2.5 mg/kg bid): 42.59%
- Tumor volume ([1]; Day 3, 2.5 mg/kg bid): 360.24 ± 88.80 mm^3
- Relative tumor proliferation rate T/C ([1]; Day 3, 5 mg/kg bid): 43.90%
- Tumor volume ([1]; Day 3, 5 mg/kg bid): 371.36 ± 111.74 mm^3
- Relative tumor proliferation rate T/C ([1]; Day 3, 10 mg/kg bid): 30.18%
- Tumor volume ([1]; Day 3, 10 mg/kg bid): 255.24 ± 87.04 mm^3
- Relative tumor proliferation rate T/C ([1]; Day 3, 20 mg/kg bid): 31.16%
- Tumor volume ([1]; Day 3, 20 mg/kg bid): 263.60 ± 85.49 mm^3
- Relative tumor proliferation rate T/C ([1]; Day 5, 2.5 mg/kg bid): 29.79%
- Tumor volume ([1]; Day 5, 2.5 mg/kg bid): 376.59 ± 84.87 mm^3
- Relative tumor proliferation rate T/C ([1]; Day 5, 5 mg/kg bid): 22.33%
- Tumor volume ([1]; Day 5, 5 mg/kg bid): 282.31 ± 46.30 mm^3
- Relative tumor proliferation rate T/C ([1]; Day 5, 10 mg/kg bid): 19.15%
- Tumor volume ([1]; Day 5, 10 mg/kg bid): 242.09 ± 78.53 mm^3
- Relative tumor proliferation rate T/C ([1]; Day 5, 20 mg/kg bid): 22.72%
- Tumor volume ([1]; Day 5, 20 mg/kg bid): 287.22 ± 96.26 mm^3
- Relative tumor proliferation rate T/C ([1]; Day 7, 2.5 mg/kg bid): 18.12%
- Tumor volume ([1]; Day 7, 2.5 mg/kg bid): 388.09 ± 100.42 mm^3
- Relative tumor proliferation rate T/C ([1]; Day 7, 5 mg/kg bid): 16.77%
- Tumor volume ([1]; Day 7, 5 mg/kg bid): 353.35 ± 109.82 mm^3
- Relative tumor proliferation rate T/C ([1]; Day 7, 10 mg/kg bid): 12.50%
- Tumor volume ([1]; Day 7, 10 mg/kg bid): 263.53 ± 134.53 mm^3
- Relative tumor proliferation rate T/C ([1]; Day 7, 20 mg/kg bid): 9.56%
- Tumor volume ([1]; Day 7, 20 mg/kg bid): 201.43 ± 135.76 mm^3
- Relative tumor proliferation rate T/C ([1]; Day 9, 2.5 mg/kg bid): 18.22%
- Tumor volume ([1]; Day 9, 2.5 mg/kg bid): 499.09 ± 161.54 mm^3
- Relative tumor proliferation rate T/C ([1]; Day 9, 5 mg/kg bid): 16.04%
- Tumor volume ([1]; Day 9, 5 mg/kg bid): 439.46 ± 222.47 mm^3
- Relative tumor proliferation rate T/C ([1]; Day 9, 10 mg/kg bid): 7.73%
- Tumor volume ([1]; Day 9, 10 mg/kg bid): 211.85 ± 87.87 mm^3
- Relative tumor proliferation rate T/C ([1]; Day 9, 20 mg/kg bid): 4.91%
- Tumor volume ([1]; Day 9, 20 mg/kg bid): 134.49 ± 117.51 mm^3
- Relative tumor proliferation rate T/C ([1]; Day 11, 2.5 mg/kg bid): 15.67%
- Tumor volume ([1]; Day 11, 2.5 mg/kg bid): 590.74 ± 266.98 mm^3
- Relative tumor proliferation rate T/C ([1]; Day 11, 5 mg/kg bid): 8.73%
- Tumor volume ([1]; Day 11, 5 mg/kg bid): 328.91 ± 190.07 mm^3
- Relative tumor proliferation rate T/C ([1]; Day 11, 10 mg/kg bid): 4.82%
- Tumor volume ([1]; Day 11, 10 mg/kg bid): 181.69 ± 121.62 mm^3
- Relative tumor proliferation rate T/C ([1]; Day 11, 20 mg/kg bid): 2.89%
- Tumor volume ([1]; Day 11, 20 mg/kg bid): 109.00 ± 116.94 mm^3
- TGI (tumor growth inhibition rate) ([1]; 2.5 mg/kg bid): 84.33%
- TGI (tumor growth inhibition rate) ([1]; 5 mg/kg bid): 91.27%
- TGI (tumor growth inhibition rate) ([1]; 10 mg/kg bid): 95.18%
- TGI (tumor growth inhibition rate) ([1]; 20 mg/kg bid): 97.11%
- Tumor inhibition rate (by tumor weight) ([1]; 2.5 mg/kg bid): 85.47%
- Tumor weight ([1]; 2.5 mg/kg bid): 0.25 ± 0.15 g
- Tumor inhibition rate (by tumor weight) ([1]; 5 mg/kg bid): 89.51%
- Tumor weight ([1]; 5 mg/kg bid): 0.18 ± 0.08 g
- Tumor inhibition rate (by tumor weight) ([1]; 10 mg/kg bid): 93.42%
- Tumor weight ([1]; 10 mg/kg bid): 0.12 ± 0.10 g
- Tumor inhibition rate (by tumor weight) ([1]; 20 mg/kg bid): 96.47%
- Tumor weight ([1]; 20 mg/kg bid): 0.06 ± 0.03 g
- Rate of change in body weight (%) of day 11 to day 0 ([2]; 2.5 mg/kg bid): 13.8%
- Rate of change in body weight (%) of day 11 to day 0 ([2]; 5 mg/kg bid): 14.3%
- Rate of change in body weight (%) of day 11 to day 0 ([2]; 10 mg/kg bid): 15.6%
